Results on 13 compounds are retold here after patent US20260191968A1, “PROTAC DEGRADERS OF MLLT1 AND/OR MLLT3” (DARK BLUE THERAPEUTICS LTD, priority 2024, published 2026).

This assay deals with T1, MLLT1 (Homo sapiens, UniProt Q03111).
T1 construct: host or cells: MV4-11
T1 sequence (Q03111 1-559): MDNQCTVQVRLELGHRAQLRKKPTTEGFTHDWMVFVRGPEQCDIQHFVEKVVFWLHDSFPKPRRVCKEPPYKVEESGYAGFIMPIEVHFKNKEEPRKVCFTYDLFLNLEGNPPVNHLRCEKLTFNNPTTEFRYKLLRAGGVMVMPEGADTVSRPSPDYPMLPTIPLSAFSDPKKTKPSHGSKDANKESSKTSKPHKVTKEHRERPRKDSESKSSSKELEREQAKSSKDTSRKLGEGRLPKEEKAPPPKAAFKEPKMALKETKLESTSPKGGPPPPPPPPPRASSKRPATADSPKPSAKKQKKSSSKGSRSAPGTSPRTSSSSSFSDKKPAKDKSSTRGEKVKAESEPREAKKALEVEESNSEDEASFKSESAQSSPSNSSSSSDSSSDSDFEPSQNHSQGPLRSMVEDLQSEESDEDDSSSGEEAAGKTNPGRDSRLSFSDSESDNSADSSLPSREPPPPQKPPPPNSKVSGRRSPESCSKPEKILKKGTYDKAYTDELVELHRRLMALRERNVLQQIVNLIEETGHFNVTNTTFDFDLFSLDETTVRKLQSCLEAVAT
Description: MLLT1 degradation assay in MV4-11 cells (JESS chemiluminescent detection), three concentrations, 24 h. The assay is classed as cell-based. The conditions noted are these: with respect to DMSO control. The procedure:
MLLT1 degradation efficacy of compounds were tested in an automated chemiluminescent detection system (JESS, Cat #004-650). […] 10 mM DMSO stocks were prepared, and cells were treated with three concentrations of test compounds viz. 1000, 100 and 10 nM at a final DMSO concentration of 0.1% and incubated for 24 h at 37° C., 5% CO2. […] Post run, data were analysed using “Compass for SW” software for chemiluminescent detection. The peak area for each band was used for the calculation of MLLT1 degradation with respect to DMSO control. Data is shown as “MLLT1% degradation”.

For `CN1CCC[C@@H]1c1cc2cnc(NC(=O)c3ccc(N4CCC(c5ccc(-c6cccc7c6CN(C6CCC(=O)NC6=O)C7=O)cc5)CC4)cc3F)cc2[nH]1` (stereo partly drawn) [Example 218, 4-(4-(4-(2-(2,6-dioxopiperidin-3-yl)-1-oxoisoindolin-4-yl)phenyl)piperidin-1-yl)-2-fluoro-N-(2-((R)-1-methylpyrrolidin-2-yl)-1H-pyrrolo[3,2-c]pyridin-6-yl)benzamide], the “MLLT1% Degradation @ 0.01 μM” value is on record as “C (Category C: 25% ≤ C < 50% degradation)”, the “MLLT1% Degradation @ 0.1 μM” value is listed as “A (Category A: A ≥ 75% degradation)” and the “MLLT1% Degradation @ 1 μM” value is “B (Category B: 50% ≤ B < 75% degradation)”.
The matching figures for `CN1CCC[C@@H]1c1cc2cnc(NC(=O)c3ccc(N4CCC(C5CCN(c6cccc7c6C(=O)N(C6CCC(=O)NC6=O)C7=O)CC5)CC4)nc3)cc2[nH]1` (stereo partly drawn) [Example 152, 6-(1′-(2-(2,6-dioxopiperidin-3-yl)-1,3-dioxoisoindolin-4-yl)-[4,4′-bipiperidin]-1-yl)-N-(2-((R)-1-methylpyrrolidin-2-yl)-1H-pyrrolo[3,2-c]pyridin-6-yl)nicotinamide]: “D (Category D: D < 25% degradation)”, “B (Category B: 50% ≤ B < 75% degradation)” and “A (Category A: A ≥ 75% degradation)”.
The matching figures for `CN1CCC[C@@H]1c1cc2cnc(NC(=O)c3ccc(OCC4CC5(CCN(c6cccc7c6CN(C6CCC(=O)NC6=O)C7=O)CC5)C4)cc3F)cc2[nH]1` (stereo partly drawn) [Example 201, 4-((7-(2-(2,6-dioxopiperidin-3-yl)-1-oxoisoindolin-4-yl)-7-azaspiro[3.5]nonan-2-yl)methoxy)-2-fluoro-N-(2-((R)-1-methylpyrrolidin-2-yl)-1H-pyrrolo[3,2-c]pyridin-6-yl)benzamide]: “B (Category B: 50% ≤ B < 75% degradation)”, “A (Category A: A ≥ 75% degradation)” and “A (Category A: A ≥ 75% degradation)”.
Consider `CN1CCC[C@@H]1c1cc2cnc(NC(=O)c3ccc(CCCCC#Cc4cc5c(cc4F)C(=O)N(C4CCC(=O)NC4=O)C5)cc3F)cc2[nH]1` (stereo partly drawn) [Example 114, 4-(6-(2-(2,6-dioxopiperidin-3-yl)-6-fluoro-1-oxoisoindolin-5-yl)hex-5-yn-1-yl)-2-fluoro-N-(2-((R)-1-methylpyrrolidin-2-yl)-1H-pyrrolo[3,2-c]pyridin-6-yl)benzamide], for which the “MLLT1% Degradation @ 0.01 μM” value was “D (Category D: D < 25% degradation)”, the “MLLT1% Degradation @ 0.1 μM” value is “C (Category C: 25% ≤ C < 50% degradation)” and the “MLLT1% Degradation @ 1 μM” value is listed as “C (Category C: 25% ≤ C < 50% degradation)”.
In the case of `CN1CCC[C@@H]1c1cc2cnc(NC(=O)c3ccc(OCCC4CCN(c5cccc6c5CN(C5CCC(=O)NC5=O)C6=O)CC4)cc3Cl)cc2[nH]1` (stereo partly drawn) [Example 205, 2-chloro-4-(2-(1-(2-(2,6-dioxopiperidin-3-yl)-1-oxoisoindolin-4-yl)piperidin-4-yl)ethoxy)-N-(2-((R)-1-methylpyrrolidin-2-yl)-1H-pyrrolo[3,2-c]pyridin-6-yl)benzamide], the “MLLT1% Degradation @ 0.01 μM” value is recorded as “B (Category B: 50% ≤ B < 75% degradation)”, the “MLLT1% Degradation @ 0.1 μM” value is given as “A (Category A: A ≥ 75% degradation)” and the “MLLT1% Degradation @ 1 μM” value is reported as “A (Category A: A ≥ 75% degradation)”.
Consider `CN1CCC[C@@H]1c1cc2cnc(NC(=O)c3ccc(N4CCC(N5CCN(c6cccc7c6C(=O)N(C6CCC(=O)NC6=O)C7=O)CC5)CC4)nc3)cc2[nH]1` (stereo partly drawn) [Example 64, 6-(4-(4-(2-(2,6-dioxopiperidin-3-yl)-1,3-dioxoisoindolin-4-yl)piperazin-1-yl)piperidin-1-yl)-N-(2-((R)-1-methylpyrrolidin-2-yl)-1H-pyrrolo[3,2-c]pyridin-6-yl)nicotinamide], for which the “MLLT1% Degradation @ 0.01 μM” value is recorded as “B (Category B: 50% ≤ B < 75% degradation)”, the “MLLT1% Degradation @ 0.1 μM” value was “B (Category B: 50% ≤ B < 75% degradation)” and the “MLLT1% Degradation @ 1 μM” value is on record as “A (Category A: A ≥ 75% degradation)”.
Consider `CN1CCC[C@@H]1c1cc2cnc(NC(=O)c3ccc(N4CCN(CC5CCN(c6ccc(C(=O)N[C@H]7CCC(=O)NC7=O)nc6)CC5)CC4)cc3)cc2[nH]1` [Example 181, N—((S)-2,6-dioxopiperidin-3-yl)-5-(4-((4-(4-((2-((R)-1-methylpyrrolidin-2-yl)-1H-pyrrolo[3,2-c]pyridin-6-yl)carbamoyl)phenyl)piperazin-1-yl)methyl)piperidin-1-yl)picolinamide], for which the “MLLT1% Degradation @ 0.01 μM” value is “D (Category D: D < 25% degradation)”, the “MLLT1% Degradation @ 0.1 μM” value was “C (Category C: 25% ≤ C < 50% degradation)” and the “MLLT1% Degradation @ 1 μM” value is on record as “B (Category B: 50% ≤ B < 75% degradation)”.
In the case of `CN1CCC[C@@H]1c1cc2cnc(NC(=O)c3ccc(CCCC#Cc4cccc(N5CCC(=O)NC5=O)n4)cc3)cc2[nH]1` [Example 63, (R)-4-(5-(6-(2,4-dioxotetrahydropyrimidin-1(2H)-yl)pyridin-2-yl)pent-4-yn-1-yl)-N-(2-(1-methylpyrrolidin-2-yl)-1H-pyrrolo[3,2-c]pyridin-6-yl)benzamide], the “MLLT1% Degradation @ 0.01 μM” value is reported as “D (Category D: D < 25% degradation)”, the “MLLT1% Degradation @ 0.1 μM” value is reported as “D (Category D: D < 25% degradation)” and the “MLLT1% Degradation @ 1 μM” value is “C (Category C: 25% ≤ C < 50% degradation)”.
Regarding `CN1CCC[C@@H]1c1cc2cnc(NC(=O)c3ccc(OCCC4CCN(c5cccc6c5CN(C5CCC(=O)NC5=O)C6=O)CC4)cc3)cc2[nH]1` (stereo in doubt) [Example 80, 4-(2-(1-(2-((rel-S)-2,6-dioxopiperidin-3-yl)-1-oxoisoindolin-4-yl)piperidin-4-yl)ethoxy)-N-(2-((R)-1-methylpyrrolidin-2-yl)-1H-pyrrolo[3,2-c]pyridin-6-yl)benzamide], the “MLLT1% Degradation @ 0.01 μM” value is listed as “A (Category A: A ≥ 75% degradation)”, the “MLLT1% Degradation @ 0.1 μM” value is on record as “A (Category A: A ≥ 75% degradation)” and the “MLLT1% Degradation @ 1 μM” value is listed as “A (Category A: A ≥ 75% degradation)”.
For the compound `CN1CCC[C@@H]1c1[nH]c2cc(NC(=O)c3ccc(OCCC4CCN(c5cccc6c5CN(C5CCC(=O)NC5=O)C6=O)CC4)cc3)ncc2c1Cl` (stereo in doubt) [Example 162, N-(3-chloro-2-((R)-1-methylpyrrolidin-2-yl)-1H-pyrrolo[3,2-c]pyridin-6-yl)-4-(2-(1-(2-((rel-R)-2,6-dioxopiperidin-3-yl)-1-oxoisoindolin-4-yl)piperidin-4-yl)ethoxy)benzamide], the “MLLT1% Degradation @ 0.01 μM” value is recorded as “A (Category A: A ≥ 75% degradation)”, the “MLLT1% Degradation @ 0.1 μM” value is reported as “A (Category A: A ≥ 75% degradation)” and the “MLLT1% Degradation @ 1 μM” value is “A (Category A: A ≥ 75% degradation)”.
`CN1CCC[C@@H]1c1cc2cnc(NC(=O)c3ccc(OC4CC5(CCN(c6cccc7c6CN(C6CCC(=O)NC6=O)C7=O)CC5)C4)cc3F)cc2[nH]1` (stereo partly drawn) [Example 200, 4-((7-(2-(2,6-dioxopiperidin-3-yl)-1-oxoisoindolin-4-yl)-7-azaspiro[3.5]nonan-2-yl)oxy)-2-fluoro-N-(2-((R)-1-methylpyrrolidin-2-yl)-1H-pyrrolo[3,2-c]pyridin-6-yl)benzamide]: the “MLLT1% Degradation @ 0.01 μM” value is recorded as “B (Category B: 50% ≤ B < 75% degradation)”, the “MLLT1% Degradation @ 0.1 μM” value is listed as “A (Category A: A ≥ 75% degradation)” and the “MLLT1% Degradation @ 1 μM” value is given as “A (Category A: A ≥ 75% degradation)”.
Take `CN1CCC[C@@H]1c1cc2cnc(NC(=O)c3ccc(CCCC#Cc4cc5c(cc4F)C(=O)N(C4CCC(=O)NC4=O)C5)cc3)cc2[nH]1` (stereo partly drawn) [Example 106, 4-(5-(2-(2,6-dioxopiperidin-3-yl)-6-fluoro-1-oxoisoindolin-5-yl)pent-4-yn-1-yl)-N-(2-((R)-1-methylpyrrolidin-2-yl)-1H-pyrrolo[3,2-c]pyridin-6-yl)benzamide]: the “MLLT1% Degradation @ 0.01 μM” value was “B (Category B: 50% ≤ B < 75% degradation)”, the “MLLT1% Degradation @ 0.1 μM” value is listed as “A (Category A: A ≥ 75% degradation)” and the “MLLT1% Degradation @ 1 μM” value is “A (Category A: A ≥ 75% degradation)”.
As for `CN1CCC[C@@H]1c1cc2cnc(NC(=O)c3ccc(N4CCN(CC5CCN(c6cc7c(cc6F)C(=O)N(C6CCC(=O)NC6=O)C7=O)CC5)CC4)cc3)cc2[nH]1` (stereo partly drawn) [Example 180, 4-(4-((1-(2-(2,6-dioxopiperidin-3-yl)-6-fluoro-1,3-dioxoisoindolin-5-yl)piperidin-4-yl)methyl)piperazin-1-yl)-N-(2-((R)-1-methylpyrrolidin-2-yl)-1H-pyrrolo[3,2-c]pyridin-6-yl)benzamide], the “MLLT1% Degradation @ 0.01 μM” value is listed as “C (Category C: 25% ≤ C < 50% degradation)”, the “MLLT1% Degradation @ 0.1 μM” value is listed as “B (Category B: 50% ≤ B < 75% degradation)” and the “MLLT1% Degradation @ 1 μM” value is on record as “B (Category B: 50% ≤ B < 75% degradation)”.
